Two molecules from patent US20260067245A1, “METHODS AND COMPOSITIONS FOR TUMOR THERAPY” (MEMORIAL SLOAN KETTERING CANCER CENTER, priority 2022, published 2026) can be followed below.

“Also recorded” adds a separate entry of the source.

The subject of this experiment is B16F10 cells. As to the kind of experiment: mouse bilateral tumor model, B16 murine melanoma (one tumor injected, contralateral not injected). Type of experiment: in vivo.

Procedure: By injecting only one of two tumors throughout the course of the experiment it is possible to separate the effect of the injected tumor from the “abscopal” effect on the distant non-injected tumor. Once treatment begins, tumors are measured twice weekly for at least 90 days.
Also, unless indicated otherwise, controls were treated with isotype control antibodies and vehicle only. Furthermore, unless indicated otherwise, all experiments were performed using the mouse bilateral tumor model described below and summarized in FIG. 2.
The animals used had large tumors in two opposite flanks. One tumor was injected while the second remained non-injected (FIG. 2), allowing separate analysis of the effect at the injected tumor from the so-called ‘abscopal’ effect at the non-injected tumor, in order to understand how this treatment could benefit patients with metastatic cancer. […] C57BL/6 mice were initially implanted with 5×10^5 syngeneic B16F10 cells intra-dermally in bilateral flanks. 8 days post tumor cell implantation, when bilateral tumors measured ˜0.5 cm, intratumoral (IT) treatment with various test agents was initiated together with intraperitoneal (IP) anti-PD-1 mAb. Treatment was administered twice weekly for 4 weeks into one of the bilateral tumors. The contralateral tumor remained un-injected for the duration of the experiment.
8 days post tumor cell implantation, when bilateral tumors measured ˜0.5 cm, intratumoral (IT) treatment with agents selected to activate APCs was initiated together with intraperitoneal (IP) anti-PD-1 mAb. Treatment was administered twice weekly for 4 weeks into one of the bilateral tumors. The contralateral tumor remained un-injected for the duration of the experiment (see FIG. 2 for schematic of experimental protocol).
These nanoparticles were administered to animals receiving 250 μg intraperitoneal anti-PD-1 (RMP1-14) concurrently. Non-formulated control animals received mixtures of MPL (5 μg) and FGK45 (20 μg) injected intratumorally with RMP1-14 delivered intraperitoneally. Anti-PD-1-only control animals received 250 μg of intraperitoneal RMP1-14 alone. Isotype/vehicle control animals received isotype control mAbs and vehicle corresponding to the nanoparticle-treated group.

`O=C1[O][Pt]2([NH][C@@H]3CCCC[C@H]3[NH]2)[O]C1=O` [oxaliplatin]: the survival result (concurrent systemic (IP) addition to intratumoral MPL, anti-IL10R and anti-CD40 (41040)) is recorded as “increases survival”. With PolyIC, the “activity when substituted for MPL in the regimen” value (FIG. 35B, bilateral tumor model) is reported as “could be substituted for MPL; also recorded: can be substituted for MPL, albeit possibly with slightly reduced activity”.
